Test results from US9012611B2, “Use of 3,8,12,14, 17,20-oxo-substituted pregnene glycosides in the preparation of healthcare products, food additives and pharmaceuticals for the inhibition of appetite” (Institute of Materia Medica, Chinese Academy of Sciences, priority 2010, dated 2015).

Columns and labels:
[1] = Animal test in vivo: average body weight; design: species or system rat; settings: for Average body weight: positive control 15 mg/kg; for body weight compared with the blank control group (in words): during the administration of the drugs, pure glycosides 50 mg/kg
Description: (§1) 6-7 weeks-old female Wistar rat (purchased from Shanghai Laboratory Animal Center of Chinese Academy of Sciences)(weight: 110-150 g) was raised alone in suspended metal cage. After the experimental rat was obtained, it was checked to make sure whether they were abnormal or had obvious disease signs. The rat can freely obtain the drinking-water and feed for rodent (RM1(E)AQC). The feeding cage was controlled to receive 12 h illumination (from 07:00 to 19:00) and to be in a dark environment for 12 h, and the room temperature and relative humidity were controlled to be 21±3° C. and 55±15% respectively and not to deviate the upper and lower limit. The rats were randomly divided into groups depending on the body weight according to random number table to make the average weight in each group are approximately equal. Before the test, the rats were pre-trained suitably for one week (from −7th day to −1st day) during which the consumptions of feed and drinking water were recorded.
(§2) Each group of drug to be tested, positive control group, and blank control group consisted of 5 rats, respectively. The tested drug and positive control drug were mixed with wheaten starch before the administration and formulated to suspension with required doses according to 10 mL/kg of administration volume. The positive control drug was sibutramine hydrochloride and the administration dosage was 15 mg/kg body weight. In the blank control group, only equal amount of starch was used to formulate suspension for administration by […] in a same volume. The administration time is the 1st day, 2nd day and 3rd day. The body weight of the rat, the consumption of the feed (the weight of the feeding hopper) and consumption of the drinking water (bottle weight) were recorded from the −7th day to the 7th day.

female Wistar rat = assay: Animal test in vivo: average food consumption (appetite inhibition); settings: for Average food consumptions: positive control 15 mg/kg; for average food consumptions compared with the blank control group (in words): during the administration of the drugs, pure glycosides 50 mg/kg
Description: as §1, §2

With `CO[C@H]1C[C@H](O[C@H]2[C@@H](OC)C[C@H](O[C@H]3CC[C@@]4(C)C(=CC[C@]5(O)[C@@H]4C[C@@H](OC(=O)/C=C(\C)C(C)C)[C@@]4(C)[C@]5(O)CC[C@@]4(O)C(C)=O)C3)O[C@@H]2C)O[C@@H](C)[C@H]1O[C@H]1C[C@H](OC)[C@H](O[C@H]2C[C@@H](OC)[C@@H](O[C@@H]3O[C@H](CO)[C@@H](O)[C@H](O)[C@H]3O)[C@H](C)O2)[C@@H](C)O1` [Wilfoside C1G, wilfoside C1G] the Average body weight ([1]; 1st day (administration day), Table 3, crude extract 300 mg/kg, others 50 mg/kg) was 163.6 g, the Average body weight ([1]; 2nd day (administration day), Table 3, crude extract 300 mg/kg, others 50 mg/kg) was 163.2 g and the Average body weight ([1]; 3rd day (administration day), Table 3, crude extract 300 mg/kg, others 50 mg/kg) was 165.2 g. It also gave an Average body weight ([1]; 4th day (after administration on days 1-3), Table 3, crude extract 300 mg/kg, others 50 mg/kg) of 166.4 g, an Average body weight ([1]; 5th day (after administration on days 1-3), Table 3, crude extract 300 mg/kg, others 50 mg/kg) of 170.4 g and an Average body weight ([1]; 6th day (after administration on days 1-3), Table 3, crude extract 300 mg/kg, others 50 mg/kg) of 169.6 g. For the same compound, the Average body weight ([1]; 7th day (after administration on days 1-3), Table 3, crude extract 300 mg/kg, others 50 mg/kg) was 174.4 g, the “body weight compared with the blank control group (in words)” value ([1]; crude extract 300 mg/kg) was “no great differences” and the Average body weight ([1]; −1st day (before administration), Table 3, crude extract 300 mg/kg, others 50 mg/kg) was 162.8 g. It also gave an Average body weight ([1]; −2nd day (before administration), Table 3, crude extract 300 mg/kg, others 50 mg/kg) of 157.6 g, an Average body weight ([1]; −3rd day (before administration), Table 3, crude extract 300 mg/kg, others 50 mg/kg) of 155.6 g and an Average body weight ([1]; −4th day (before administration), Table 3, crude extract 300 mg/kg, others 50 mg/kg) of 153.2 g. The Average body weight ([1]; −5th day (before administration), Table 3, crude extract 300 mg/kg, others 50 mg/kg) was 151.2 g, the Average body weight ([1]; −6th day (before administration), Table 3, crude extract 300 mg/kg, others 50 mg/kg) was 147.6 g and the Average body weight ([1]; −7th day (before administration), Table 3, crude extract 300 mg/kg, others 50 mg/kg) was 145.6 g. The Average food consumptions (female Wistar rat; 1st day (administration day), Table 1, crude extract 300 mg/kg, others 50 mg/kg) was 14.4 g, the Average food consumptions (female Wistar rat; 2nd day (administration day), Table 1, crude extract 300 mg/kg, others 50 mg/kg) was 12.4 g and the Average food consumptions (female Wistar rat; 3rd day (administration day), Table 1, crude extract 300 mg/kg, others 50 mg/kg) was 14.4 g. For the same compound, the Average food consumptions (female Wistar rat; 4th day (after administration on days 1-3), Table 1, crude extract 300 mg/kg, others 50 mg/kg) was 14.8 g, the Average food consumptions (female Wistar rat; 5th day (after administration on days 1-3), Table 1, crude extract 300 mg/kg, others 50 mg/kg) was 17.6 g and the Average food consumptions (female Wistar rat; 6th day (after administration on days 1-3), Table 1, crude extract 300 mg/kg, others 50 mg/kg) was 12.4 g. The Average food consumptions (female Wistar rat; 7th day (after administration on days 1-3), Table 1, crude extract 300 mg/kg, others 50 mg/kg) was 15.2 g, the “average food consumptions compared with the blank control group (in words)” value (female Wistar rat; crude extract 300 mg/kg) was “no great differences” and the Average food consumptions (female Wistar rat; −1st day (before administration), Table 1, crude extract 300 mg/kg, others 50 mg/kg) was 14 g. It also gave an Average food consumptions (female Wistar rat; −2nd day (before administration), Table 1, crude extract 300 mg/kg, others 50 mg/kg) of 13.6 g, an Average food consumptions (female Wistar rat; −3rd day (before administration), Table 1, crude extract 300 mg/kg, others 50 mg/kg) of 14.8 g and an Average food consumptions (female Wistar rat; −4th day (before administration), Table 1, crude extract 300 mg/kg, others 50 mg/kg) of 15.2 g. For the same compound, the Average food consumptions (female Wistar rat; −5th day (before administration), Table 1, crude extract 300 mg/kg, others 50 mg/kg) was 13.6 g, the Average food consumptions (female Wistar rat; −6th day (before administration), Table 1, crude extract 300 mg/kg, others 50 mg/kg) was 13.6 g and the Average food consumptions (female Wistar rat; −7th day (before administration), Table 1, crude extract 300 mg/kg, others 50 mg/kg) was 13.6 g.

`CO[C@H]1C[C@H](O[C@H]2[C@@H](OC)C[C@H](O[C@H]3CC[C@@]4(C)C(=CC[C@]5(O)[C@@H]4C[C@@H](OC(=O)/C=C(\C)C(C)C)[C@@]4(C)[C@]5(O)CC[C@@]4(O)C(C)=O)C3)O[C@@H]2C)O[C@@H](C)[C@H]1O[C@H]1C[C@H](OC)[C@H](O[C@H]2C[C@@H](OC)[C@@H](O)[C@H](C)O2)[C@@H](C)O1` [Wilfoside C1N, wilfoside C1N] gave an Average body weight ([1]; 1st day (administration day), Table 6, wilfosides 50 mg/kg) of 152 g, an Average body weight ([1]; 2nd day (administration day), Table 6, wilfosides 50 mg/kg) of 146.8 g and an Average body weight ([1]; 3rd day (administration day), Table 6, wilfosides 50 mg/kg) of 141.6 g. It also gave an Average body weight ([1]; 4th day (after administration on days 1-3), Table 6, wilfosides 50 mg/kg) of 149.2 g, an Average body weight ([1]; 5th day (after administration on days 1-3), Table 6, wilfosides 50 mg/kg) of 154 g and an Average body weight ([1]; 6th day (after administration on days 1-3), Table 6, wilfosides 50 mg/kg) of 155.2 g. For the same compound, the Average body weight ([1]; 7th day (after administration on days 1-3), Table 6, wilfosides 50 mg/kg) was 157.2 g, the “body weight compared with the blank control group (in words)” value ([1]; crude extract 300 mg/kg) was “no great differences” and the Average body weight ([1]; −1st day (before administration), Table 6, wilfosides 50 mg/kg) was 154 g. It also gave an Average body weight ([1]; −2nd day (before administration), Table 6, wilfosides 50 mg/kg) of 151.4 g, an Average body weight ([1]; −3rd day (before administration), Table 6, wilfosides 50 mg/kg) of 148.4 g and an Average body weight ([1]; −4th day (before administration), Table 6, wilfosides 50 mg/kg) of 146.8 g. For the same compound, the Average body weight ([1]; −5th day (before administration), Table 6, wilfosides 50 mg/kg) was 144.4 g, the Average body weight ([1]; −6th day (before administration), Table 6, wilfosides 50 mg/kg) was 142 g and the Average body weight ([1]; −7th day (before administration), Table 6, wilfosides 50 mg/kg) was 140.6 g. For the same compound, the Average food consumptions (female Wistar rat; 1st day (administration day), Table 4, wilfosides 50 mg/kg) was 11.6 g, the Average food consumptions (female Wistar rat; 2nd day (administration day), Table 4, wilfosides 50 mg/kg) was 8.8 g and the Average food consumptions (female Wistar rat; 3rd day (administration day), Table 4, wilfosides 50 mg/kg) was 3.6 g. For the same compound, the Average food consumptions (female Wistar rat; 4th day (after administration on days 1-3), Table 4, wilfosides 50 mg/kg) was 11.6 g, the Average food consumptions (female Wistar rat; 5th day (after administration on days 1-3), Table 4, wilfosides 50 mg/kg) was 15.6 g and the Average food consumptions (female Wistar rat; 6th day (after administration on days 1-3), Table 4, wilfosides 50 mg/kg) was 13.6 g. For the same compound, the Average food consumptions (female Wistar rat; 7th day (after administration on days 1-3), Table 4, wilfosides 50 mg/kg) was 15.6 g, the “average food consumptions compared with the blank control group (in words)” value (female Wistar rat; crude extract 300 mg/kg) was “greatly different from those in the blank group” and the Average food consumptions (female Wistar rat; −1st day (before administration), Table 4, wilfosides 50 mg/kg) was 13.6 g. It also gave an Average food consumptions (female Wistar rat; −2nd day (before administration), Table 4, wilfosides 50 mg/kg) of 14 g, an Average food consumptions (female Wistar rat; −3rd day (before administration), Table 4, wilfosides 50 mg/kg) of 13.2 g and an Average food consumptions (female Wistar rat; −4th day (before administration), Table 4, wilfosides 50 mg/kg) of 13.2 g. For the same compound, the Average food consumptions (female Wistar rat; −5th day (before administration), Table 4, wilfosides 50 mg/kg) was 14.8 g, the Average food consumptions (female Wistar rat; −6th day (before administration), Table 4, wilfosides 50 mg/kg) was 10.8 g and the Average food consumptions (female Wistar rat; −7th day (before administration), Table 4, wilfosides 50 mg/kg) was 8.4 g.
